From paper PMC6562844, “A Basic Study of Photodynamic Therapy with Glucose-Conjugated Chlorin e6 Using Mammary Carcinoma Xenografts” (Cancers, 2019)
In brackets after ≈: the same amount, converted by molar mass. Like-named read-outs stand apart in the source and are kept apart here.

Assays:
SNP cells [1] = test: Photodynamic cytotoxicity in SNP cells (Cell Counting Kit-8); type: cell-based, canine; conditions: for Cell viability compared with 0 J/cm^2 of light: p < 0.01; for IC50: Canis lupus familiaris, light or radiation study, 24 h, 24 h incubation, 650-nm laser 10 mW/cm^2, viability 24 h after PDT, read-out: IC50 against SNP cells
Protocol: We seeded 1 × 10^4 SNP cells into each well of 96-well plates (Corning Inc., New York, NY, USA) followed by overnight incubation. Cells were then incubated with various concentrations of G-Ce6 for 24 h at 37 °C. After washing with fresh media, the cells were irradiated with 650-nm light emitted by a semiconductor laser (Osada Electric Co., Ltd., Tokyo, Japan), using an optical fiber with a micro-lens delivery attachment (Pioneer Optics, Inc., Windsor Lock, CT, USA). PDT was performed at 10 mW/cm^2 in cells exposed to six concentrations of NPe6 and G-Ce6 (0, 0.064, 0.32, 1.6, 8.0, or 40.0 μg/mL) using four light doses (0, 1, 5, or 15 J/cm^2). The cells were then incubated for 24 h in the dark prior to examining cell viability using the Cell Counting Kit-8 (Dojindo, Kumamoto, Japan), according to the manufacturer’s instructions.

SNP cells [2] = test: Analysis of cell death (Hoechst 33342, Annexin V-FITC / EthD-III staining); type: cell-based, canine; conditions: for Annexin V-FITC / EthD-III staining 4 h after PDT: 8 μg/mL
Protocol: We seeded 5 × 10^4 SNP cells in 35-mm Petri dishes containing 2 mL of cultivation medium. After 24 h of incubation, the dishes were divided into the following […] groups: 1) control group (no treatment); 2) 0 J/cm^2 PDT group (treated with 8 μg/mL G-Ce6 and irradiated with light dose of 0 J/cm^2); 3) 1 J/cm^2 PDT group (treated with 8 μg/mL G-Ce6 and irradiated with light dose of 1 J/cm^2); 4) 5 J/cm^2 PDT group (treated with 8 μg/mL G-Ce6 and irradiated with light dose of 5 J/cm^2); and 5) 15 J/cm^2 PDT group (treated with 8 μg/mL G-Ce6 and irradiated with light dose of 15 J/cm^2).
The cells were incubated with 8 μg/mL G-Ce6 for 24 h. After washing with fresh media, the cells were irradiated with 650-nm laser light (10 mW/cm^2; 1, 5, and 15 J/cm^2) emitted by a semiconductor laser using an optical fiber with a microlens delivery attachment. After 4 h of PDT, the cells were stained using the Promokine Apoptotic/Necrotic/Healthy cell detection kit (PromoKine, Heidelberg, Germany), according to the manufacturer’s instructions. […] Nuclear morphology was examined using an Olympus BX51 (Olympus Co., Tokyo, Japan). […] Nuclear morphology was examined using an Olympus Fluoview FV1000 (Olympus Co., Tokyo, Japan). The cells were analyzed using fluorescence microscopy using FITC and Texas Red filter setting.

SNP cells [3] = test: Analysis of apoptosis (Muse Annexin V and Dead Cell Assay kit); type: cell-based, canine; conditions: 8 μg/mL; 1, 5, or 15 J/cm^2; 4 h after PDT; p < 0.01
Protocol: SNP cells were seeded at a density of 5 × 10^4 cells/well in 35-mm petri dishes containing 2 mL culture medium. Following 24 h of incubation, the cells were divided into the following groups: control (no treatment); laser (irradiated with a light dose of 15 J/cm^2); G-Ce6 (treated with 8 μg/mL G-Ce6); and PDT (treated with 8 μg/mL G-Ce6, and then irradiated with a light dose of 1, 5, or 15 J/cm^2).
The cells were incubated with 8 μg/mL G-Ce6 for 24 h. After washing with fresh media, the cells were irradiated with 650-nm laser light (10 mW/cm^2; 1, 5, and 15 J/cm^2) emitted by a semiconductor laser, using an optical fiber with a microlens delivery attachment. Apoptosis was assessed 4 h after laser irradiation using the Muse Annexin V and Dead Cell Assay kit (EMD Millipore Co., Billerica, MA, USA), according to the manufacturer’s protocols. Annexin V was used to detect phosphatidylserine on the external membrane of apoptotic cells.
Single-cell suspensions were then loaded onto the Muse Cell Analyzer (EMD Millipore Co.).

SNP tumors [4] = test: Tumor response to PDT in SNP tumor-bearing mice; type: in vivo, NOD/ShiJic-scidJcl mice; conditions: 10 mg/kg i.v.; for Tumor regrowth delay vs control group: 677-nm, 100 J/cm^2, p < 0.05
Protocol: Six-week-old female NOD/ShiJic-scidJcl mice (CLEA Japan, Tokyo, Japan) were maintained in isolators under specific pathogen-free conditions. All SCID mice were housed and handled under clean conditions using a Jic rack (Jic Co., Kanagawa, Japan), sterilized water, cages, beddings, and food (CL-2; CLEA Japan, Tokyo, Japan). Food and water were given ad libitum. SNP cells were inoculated subcutaneously in the shaved lower dorsum of mice at a density of 1 × 10^6 cells in 0.1 mL phosphate buffered salts (Nacalai Tesque Inc., Kyoto, Japan) per mouse using a 26-gauge syringe. The treatments were initiated when the average tumor volume reached about 100 mm^3 in tumor model. The use of animals and the procedures employed in this study were approved by the Animal Research Committee of Tottori University (project number: 15-T-48).
We examined the following two experimental groups: (i) a 3-h-interval PDT group (G-Ce6 administered 3 h before laser irradiation) and (ii) a 5-min-interval PDT group (G-Ce6 administered 5 min before laser irradiation). Tumor-bearing mice were intravenously administered approximately 0.1 mL of G-Ce6 stock solution to achieve a dose of 10 mg/kg body weight; they were irradiated with 677-nm laser light emitted by a diode laser (Osada Electric Co., Ltd., Tokyo, Japan). Light was delivered to the mice through a quartz fiber fitted with a microlens and expanded onto the tumor at a 2–4 mm skin margin. The tumors were exposed at a fluence rate of 250 mW/cm^2, at a light dose of 100 J/cm^2.
The resulting treatment effect was assayed by changes in tumor volume. The tumor size was regularly measured after PDT using a caliper. Tumor volume was calculated using the following formula: tumor volume (V) = (a × b × c) × π/6, where a, b, and c are three orthogonal diameters of the tumor. The experiment was terminated on day 25. All mice were sacrificed via cervical dislocation, and the tumors were harvested.

SNP tumors [5] = test: Histological examination of SNP tumors after PDT (H&E); type: in vivo, NOD/ShiJic-scidJcl mice
Protocol: To examine PDT-induced histological changes in the tumor tissue and surrounding normal tissue, animals were sacrificed via cervical dislocation, and the tumors were harvested at 24 h after PDT. The tumor tissues were fixed in 10% buffered formalin and embedded in paraffin. Tumor sections were cut at a thickness of 4 μm, stained with hematoxylin & eosin (H&E), and examined under a light microscope (Olympus BX51).

[6] = test system: murine colon cancer cells; design: method as in PMID 29408755; conditions: light dose of 16 J/cm^2; read-out: IC50 against murine colon cancer cells; cited from earlier work

In the case of `CCC1=C(C)c2cc3[nH]c(cc4nc(c(CC(=O)OC)c5[nH]c(cc1n2)c(C)c5C(=O)OC)[C@@H](CCC(=O)OC)[C@@H]4C)c(C)c3C(C)OCCCS[C@@H]1O[C@H](CO)[C@@H](O)[C@H](O)[C@H]1O` (stereo partly drawn) [G-Ce6, Methyl (7S,8S)-18-ethyl-5-(2-methoxy-2-oxoethyl)-7-(3-methoxy-3-oxopropyl)-2,8,12,17-tetramethyl-13-(1-(3-(((2S,3R,4S,5S,6R)-3,4,5-trihydroxy-6-(hydroxymethyl)tetrahydro-2H-pyran-2-yl)thio)propoxy)ethyl)-7H,8H-porphyrin-3-carboxylate], the “Cell viability compared with 0 J/cm^2 of light” value (SNP cells [1]; 1.6 μg/mL, 15 J/cm^2) is reported as “significantly lower”, the “Cell viability compared with 0 J/cm^2 of light” value (SNP cells [1]; 8 μg/mL, 5 J/cm^2 and 15 J/cm^2) is reported as “significantly lower” and the “Cell viability compared with 0 J/cm^2 of light” value (SNP cells [1]; 40 μg/mL, 1, 5, and 15 J/cm^2) is reported as “significantly lower”. The “Cell death in the absence of laser irradiation” value (SNP cells [1]; <40 μg/mL G-Ce6, no laser irradiation) was “not observed”, the IC50 (SNP cells [1]; light dose 1 J/cm^2) was 33.4 µg/mL (≈ 37.4 µM) and the IC50 (SNP cells [1]; light dose 5 J/cm^2) was 10.4 µg/mL (≈ 11.6 µM). The IC50 (SNP cells [1]; light dose 15 J/cm^2) was 1.7 µg/mL (≈ 1.9 µM), the “Morphological changes 4 h after PDT” value (SNP cells [2]; 0 J/cm^2 PDT group, Hoechst 33342) was “Signs of cell death were not visible” and the “Annexin V-FITC / EthD-III staining 4 h after PDT” value (SNP cells [2]; 0 and 1 J/cm^2 PDT groups) was “a few cells were positively stained with EthD-III”. For the same molecule, the “Annexin V-FITC / EthD-III staining 4 h after PDT” value (SNP cells [2]; 5 and 15 J/cm^2 PDT groups) was “many cells were positively stained with Annexin V or EthD-III”, the “Morphological changes 4 h after PDT” value (SNP cells [2]; 1 J/cm^2 PDT group) was “membrane blebbing” and the “Morphological changes 4 h after PDT” value (SNP cells [2]; 5 J/cm^2 PDT group) was “shrinkage”. For the same molecule, the “Hoechst 33342 nuclear staining 4 h after PDT” value (SNP cells [2]; 5 and 15 J/cm^2 PDT groups) was “nuclear condensation”, the “Morphological changes 4 h after PDT” value (SNP cells [2]; 15 J/cm^2 PDT group) was “cell membranes were not observed and a decrease in the number of SNP cells was evident” and the “Apoptotic rates compared with control group” value (SNP cells [3]) was “significantly higher”. For the same molecule, the “Mean tumor weight on day 25” value (SNP tumors [4]; 3-h-interval PDT) was 210.3 ± 85.0 mg, the “Tumor regrowth delay vs control group” value (SNP tumors [4]; 3-h-interval PDT) was “significant tumor regrowth delay” and the “Mean tumor weight on day 25” value (SNP tumors [4]; 5-min-interval PDT) was 34.0 ± 12.7 mg. For the same molecule, the “Tumor regrowth delay vs control group” value (SNP tumors [4]; 5-min-interval PDT) was “significant tumor regrowth delay”, the “Histological findings 24 h after PDT” value (SNP tumors [5]; 3-h-interval PDT) was “cells at the superficial tumor tissue appeared necrotic, whereas deep-seated tumor cells appeared intact” and the “Histological findings 24 h after PDT” value (SNP tumors [5]; 5-min-interval PDT) was “widespread tumor cells appeared necrotic”. For the same molecule, the IC50 [6] was 1.35 nM.
